Assay results as given in ChEMBL document CHEMBL1201862, “PubChem BioAssay data set” (2004).
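Five concentrations, 48 hours, 96-well plates. GI50 marks 50% less growth.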 Active and inactive are the calls of the source. Cut-off read from the data, not from the text of the source: active = GI50 up to about 1.1 µM and inactive = higher.

What was measured:
Test in all cases: NCI anticancer screen, dose series, 48 h
M19-MEL = test system: M19-MEL
DMS-114 = test system: DMS-114
DLD-1 = test system: DLD-1
NCI-H522 = test system: NCI-H522
SNB-19 = test system: SNB-19
U-251 = test system: U-251
SNB-78 = test system: SNB-78
KM-20L2 = test system: KM-20L2
ACHN = test system: ACHN
A498 = test system: A498
EKVX = test system: EKVX
CCRF-CEM = test system: CCRF-CEM
HCC 2998 = test system: HCC 2998
SW-620 = test system: SW-620
SF-539 = test system: SF-539
UO-31 = test system: UO-31
M14 = test system: M14
SR = test system: SR
SK-MEL-5 = test system: SK-MEL-5
SK-MEL-28 = test system: SK-MEL-28
IGROV-1 = test system: IGROV-1
SNB-75 = test system: SNB-75
HOP-62 = test system: HOP-62
RXF 393 = test system: RXF 393
UACC-62 = test system: UACC-62
NCI-H23 = test system: NCI-H23
SN12C = test system: SN12C
RXF 631 = test system: RXF 631
MOLT-4 = test system: MOLT-4
COLO 205 = test system: COLO 205
Malme-3M = test system: Malme-3M
OVCAR-5 = test system: OVCAR-5
RPMI-8226 = test system: RPMI-8226
A549 = test system: A549
OVCAR-3 = test system: OVCAR-3
SF-295 = test system: SF-295
HL-60 = test system: HL-60
KM12 = test system: KM12
XF498 = test system: XF498
LOX IMVI = test system: LOX IMVI
SK-OV-3 = test system: SK-OV-3
SK-MEL-2 = test system: SK-MEL-2
NCI-H226 = test system: NCI-H226
K562 = test system: K562
UACC-257 = test system: UACC-257
OVCAR-4 = test system: OVCAR-4
LXFL 529 = test system: LXFL 529
HOP-92 = test system: HOP-92
HCT-116 = test system: HCT-116
DMS-273 = test system: DMS-273
CAKI-1 = test system: CAKI-1
TK-10 = test system: TK-10
SF-268 = test system: SF-268
NCI-H460 = test system: NCI-H460
HT-29 = test system: HT-29
OVCAR-8 = test system: OVCAR-8
HOP-18 = test system: HOP-18
HCT-15 = test system: HCT-15
786-0 = test system: 786-0

## O=[N+]([O-])c1nc(-c2ccccn2)[nH]c1[N+](=O)[O-]
M19-MEL
  GI50: 57.7 µM (inactive)
DMS-114
  GI50: 19 µM (inactive)
DLD-1
  GI50: 70.5 µM (inactive)
NCI-H522
  GI50: 18.6 µM (inactive)
SNB-19
  GI50: > 100 µM (inactive)
U-251
  GI50: 55.2 µM (inactive)
SNB-78
  GI50: > 100 µM (inactive)
KM-20L2
  GI50: 39.6 µM (inactive)
ACHN
  GI50: 64.3 µM (inactive)
A498
  GI50: > 100 µM (inactive)
EKVX
  GI50: > 100 µM (inactive)
CCRF-CEM
  GI50: 33.3 µM (inactive)
HCC 2998
  GI50: 96.4 µM (inactive)
SW-620
  GI50: 66.2 µM (inactive)
SF-539
  GI50: 39.6 µM (inactive)
UO-31
  GI50: 70.3 µM (inactive)
M14
  GI50: 80.5 µM (inactive)
SR
  GI50: 32.2 µM (inactive)
SK-MEL-5
  GI50: 79.3 µM (inactive)
SK-MEL-28
  GI50: 54.7 µM (inactive)
IGROV-1
  GI50: > 100 µM (inactive)
SNB-75
  GI50: 64 µM (inactive)
HOP-62
  GI50: > 100 µM (inactive)
RXF 393
  GI50: 76.7 µM (inactive)
UACC-62
  GI50: 26.3 µM (inactive)
NCI-H23
  GI50: 42.4 µM (inactive)
SN12C
  GI50: 71.6 µM (inactive)
RXF 631
  GI50: 57.8 µM (inactive)
MOLT-4
  GI50: 39.2 µM (inactive)
COLO 205
  GI50: 45.5 µM (inactive)
Malme-3M
  GI50: 57.4 µM (inactive)
OVCAR-5
  GI50: > 100 µM (inactive)
RPMI-8226
  GI50: > 100 µM (inactive)
A549
  GI50: 53.8 µM (inactive)
OVCAR-3
  GI50: 59.2 µM (inactive)
SF-295
  GI50: > 100 µM (inactive)
HL-60
  GI50: 30.1 µM (inactive)
KM12
  GI50: > 100 µM (inactive)
XF498
  GI50: > 100 µM (inactive)
LOX IMVI
  GI50: 68.7 µM (inactive)
SK-OV-3
  GI50: > 100 µM (inactive)
SK-MEL-2
  GI50: > 100 µM (inactive)
NCI-H226
  GI50: 74.1 µM (inactive)
K562
  GI50: > 100 µM (inactive)
UACC-257
  GI50: 53.2 µM (inactive)
OVCAR-4
  GI50: 44.2 µM (inactive)
LXFL 529
  GI50: 89.1 µM (inactive)
HOP-92
  GI50: > 100 µM (inactive)
HCT-116
  GI50: 22.3 µM (inactive)
DMS-273
  GI50: 65.8 µM (inactive)
CAKI-1
  GI50: 57.7 µM (inactive)
TK-10
  GI50: > 100 µM (inactive)
SF-268
  GI50: 43.6 µM (inactive)
NCI-H460
  GI50: 36.6 µM (inactive)
HT-29
  GI50: 47.5 µM (inactive)

## CCOC(=O)c1ncn2c1[nH]c(=S)c1ccccc12
M19-MEL
  GI50: > 100 µM (inactive)
OVCAR-8
  GI50: > 100 µM (inactive)
DMS-114
  GI50: 49.1 µM (inactive)
DLD-1
  GI50: > 100 µM (inactive)
NCI-H522
  GI50: 73.6 µM (inactive)
SNB-19
  GI50: > 100 µM (inactive)
U-251
  GI50: 46.9 µM (inactive)
HOP-18
  GI50: > 100 µM (inactive)
HCT-15
  GI50: > 100 µM
KM-20L2
  GI50: > 100 µM (inactive)
ACHN
  GI50: > 100 µM (inactive)
A498
  GI50: > 100 µM (inactive)
EKVX
  GI50: > 100 µM (inactive)
CCRF-CEM
  GI50: 50.2 µM (inactive)
HCC 2998
  GI50: > 100 µM (inactive)
SW-620
  GI50: 22.9 µM (inactive)
SF-539
  GI50: > 100 µM (inactive)
786-0
  GI50: > 100 µM (inactive)
UO-31
  GI50: > 100 µM (inactive)
M14
  GI50: > 100 µM (inactive)
SK-MEL-5
  GI50: > 100 µM (inactive)
SK-MEL-28
  GI50: > 100 µM (inactive)
IGROV-1
  GI50: > 100 µM (inactive)
SNB-75
  GI50: > 100 µM (inactive)
HOP-62
  GI50: > 100 µM (inactive)
RXF 393
  GI50: > 100 µM (inactive)
UACC-62
  GI50: > 100 µM (inactive)
NCI-H23
  GI50: > 100 µM (inactive)
SN12C
  GI50: > 100 µM (inactive)
RXF 631
  GI50: > 100 µM (inactive)
MOLT-4
  GI50: > 100 µM (inactive)
COLO 205
  GI50: 49.8 µM (inactive)
Malme-3M
  GI50: > 100 µM (inactive)
OVCAR-5
  GI50: > 100 µM (inactive)
RPMI-8226
  GI50: 31.3 µM (inactive)
A549
  GI50: > 100 µM (inactive)
OVCAR-3
  GI50: > 100 µM (inactive)
SF-295
  GI50: > 100 µM (inactive)
HL-60
  GI50: > 100 µM (inactive)
KM12
  GI50: > 100 µM (inactive)
LOX IMVI
  GI50: 61.7 µM (inactive)
SK-OV-3
  GI50: > 100 µM (inactive)
SK-MEL-2
  GI50: > 100 µM (inactive)
NCI-H226
  GI50: > 100 µM (inactive)
K562
  GI50: 91.6 µM (inactive)
UACC-257
  GI50: > 100 µM (inactive)
OVCAR-4
  GI50: > 100 µM (inactive)
LXFL 529
  GI50: > 100 µM (inactive)
HOP-92
  GI50: > 100 µM (inactive)
HCT-116
  GI50: > 100 µM (inactive)
DMS-273
  GI50: 44.1 µM (inactive)
CAKI-1
  GI50: > 100 µM (inactive)
TK-10
  GI50: > 100 µM (inactive)
SF-268
  GI50: > 100 µM (inactive)
NCI-H460
  GI50: > 100 µM (inactive)
HT-29
  GI50: > 100 µM (inactive)

## O=C(CCC(=O)C1Cc2ccccc2C1=O)Nc1cccc(C(F)(F)F)c1 (stereo not drawn)
M19-MEL
  GI50: > 100 µM (inactive)
OVCAR-8
  GI50: > 100 µM (inactive)
DLD-1
  GI50: > 100 µM (inactive)
SNB-19
  GI50: > 100 µM (inactive)
U-251
  GI50: > 100 µM (inactive)
HOP-18
  GI50: > 100 µM (inactive)
SNB-78
  GI50: > 100 µM (inactive)
HCT-15
  GI50: > 100 µM
KM-20L2
  GI50: > 100 µM (inactive)
ACHN
  GI50: > 100 µM (inactive)
EKVX
  GI50: > 100 µM (inactive)
CCRF-CEM
  GI50: > 100 µM (inactive)
HCC 2998
  GI50: > 100 µM (inactive)
SW-620
  GI50: > 100 µM (inactive)
SF-539
  GI50: > 100 µM (inactive)
786-0
  GI50: > 100 µM (inactive)
UO-31
  GI50: > 100 µM (inactive)
M14
  GI50: > 100 µM (inactive)
SK-MEL-5
  GI50: > 100 µM (inactive)
SK-MEL-28
  GI50: > 10 µM (inactive)
IGROV-1
  GI50: > 100 µM (inactive)
HOP-62
  GI50: > 100 µM (inactive)
RXF 393
  GI50: > 100 µM (inactive)
UACC-62
  GI50: > 100 µM (inactive)
NCI-H23
  GI50: > 100 µM (inactive)
SN12C
  GI50: > 100 µM (inactive)
RXF 631
  GI50: > 100 µM (inactive)
MOLT-4
  GI50: > 100 µM (inactive)
COLO 205
  GI50: > 100 µM (inactive)
Malme-3M
  GI50: > 100 µM (inactive)
OVCAR-5
  GI50: > 100 µM (inactive)
A549
  GI50: > 100 µM (inactive)
OVCAR-3
  GI50: > 100 µM (inactive)
SF-295
  GI50: > 100 µM (inactive)
HL-60
  GI50: > 100 µM (inactive)
KM12
  GI50: > 100 µM (inactive)
LOX IMVI
  GI50: > 100 µM (inactive)
SK-OV-3
  GI50: > 100 µM (inactive)
SK-MEL-2
  GI50: > 100 µM (inactive)
NCI-H226
  GI50: > 100 µM (inactive)
K562
  GI50: > 100 µM (inactive)
UACC-257
  GI50: > 100 µM (inactive)
OVCAR-4
  GI50: > 100 µM (inactive)
LXFL 529
  GI50: > 100 µM (inactive)
HOP-92
  GI50: > 100 µM (inactive)
HCT-116
  GI50: > 100 µM (inactive)
DMS-273
  GI50: > 100 µM (inactive)
CAKI-1
  GI50: > 100 µM (inactive)
TK-10
  GI50: > 100 µM (inactive)
SF-268
  GI50: > 100 µM (inactive)
NCI-H460
  GI50: > 100 µM (inactive)
HT-29
  GI50: > 100 µM (inactive)
